Where only a bound is given, the exact number is not on record here.

In the first assay the target is T1, GPR17 (Homo sapiens, UniProt Q13304). The assay is described as follows: cAMP accumulation functional assay (HTRF) in CHO hGPR17 cells. The assay is classed as cell-based. More on the design: host or cells: Flp-In T-REx CHO cells, expression induced with doxycycline. As to conditions: Schild analysis against MDL29,951, 5 μM forskolin, activity range, read-out: cAMP assay pA2 (converted). Here is the method: (§1) Flp-In T-REx CHO cells stably expressing human GPR17 receptor (CHO hGPR17) from Evi Kostenis' lab (Bonn University, Germany) were cultured at 37° C. in a humidified atmosphere of 5% CO2. Cells were grown in DMEM with Nutrient Mixture F-12 supplemented with hygromycin B (500 μg/ml) and blasticidin (30 μg/ml). Expression from the Flp-In locus was induced by treatment with doxycycline (1 μg/ml) for 16-20 h prior assays.
T1 sequence (Q13304 29-367 limits assumed): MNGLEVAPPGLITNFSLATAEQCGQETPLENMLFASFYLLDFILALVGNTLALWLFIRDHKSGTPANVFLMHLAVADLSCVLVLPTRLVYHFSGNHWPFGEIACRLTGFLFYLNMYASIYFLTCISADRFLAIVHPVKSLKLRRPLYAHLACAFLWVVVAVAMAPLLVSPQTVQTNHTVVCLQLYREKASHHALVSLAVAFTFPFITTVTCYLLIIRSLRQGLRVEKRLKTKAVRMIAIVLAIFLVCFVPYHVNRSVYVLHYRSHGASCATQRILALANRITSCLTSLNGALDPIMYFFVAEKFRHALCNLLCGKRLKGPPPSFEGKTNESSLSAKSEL
GPR17 activation can also recruit Gi-type G-protein signaling, resulting in a decrease of intracellular cyclic adenosine monophosphate (cAMP). Intracellular cAMP changes can be measured using the HTRF cAMP dynamic assay kit from CisBio (Codolet, France). Using homogenous time-resolved fluorescence technology (HTRF), the assay is based on competition between native cAMP produced by cells and cAMP labelled with the dye d2. The tracer binding was determined by an anti-cAMP antibody labeled with cryptate.
CHO hGPR17 were detached with PBS containing EDTA and dispatched in black 384-well plates with 5,000 cells per well. Cells were first incubated for 30 minutes at room temperature in HBSS Hepes (pH 7.4) containing vehicle or varying concentrations of test GPR17 antagonist/inverse agonist compounds. Then, a dose response curve of MDL29,951 GPR17 agonist (typically from 10^−5M to 10^−10M) was added on vehicle and on each test GPR17 antagonist/inverse agonist compound concentration in a final volume of 20 μL HBSS Hepes buffer (pH 7.4) containing 1% DMSO, 5 μM forskolin and 0.1 mM IBMX. After 60 minutes incubation at room temperature, the reaction is terminated and the cells lysed by adding the d2 detection reagent and the cryptate reagent in 10 μL lysis buffer each according to manufacturer's instructions. After 60 minutes incubation, changes in cAMP concentrations are measured according to manufacturer's instructions using an Envision plate reader with laser excitation. All incubations were performed in duplicate. Data was analyzed using GraphPad Prism software using the 4-parameter logistic equation to measure MDL29,951 pEC50s in absence and presence of GPR17 antagonist/inverse agonist test compounds. Dose ratio (DR) were plotted against antagonist concentrations and Schild analysis provided estimated affinity pA2 of GPR17 antagonist/inverse agonist test compounds.
The activities of the Example compounds tested are depicted in the table below. The activity ranges A, B and C refer to pA2 values in the cAMP assay as follows: “A”: pA2 6.5≤x<7.5, “B”: pA2 7.5≤x<8.5, “C”: 8.5≤pA2.
In general terms: Changes in cAMP serve as a functional read-out for many G protein-coupled receptors.
As to `COc1nc(OCC(F)F)c(F)cc1NS(=O)(=O)c1c[nH]c2nc(C(F)F)ccc12` [Example I-54, N-[6-(2,2-difluoroethoxy)-5-fluoro-2-methoxypyridin-3-yl]-6-(difluoromethyl)-1H-pyrrolo[2,3-b]pyridine-3-sulfonamide], the Kb is no more than 0.00316 µM. Still for that read-out and setting: the value for `COc1nc(OCCF)c(F)cc1NS(=O)(=O)c1c[nH]c2nc(C(F)F)ccc12` [Example I-55, 6-(difluoromethyl)-N-[5-fluoro-6-(2-fluoroethoxy)-2-methoxypyridin-3-yl]-1H-pyrrolo[2,3-b]pyridine-3-sulfonamide] was 0.00316 to 0.0316 µM. As for `COc1nc(OC)c(NS(=O)(=O)c2c[nH]c3nc(C(F)F)ccc23)cc1F` [Example I-56, 6-(difluoromethyl)-N-(5-fluoro-2,6-dimethoxypyridin-3-yl)-1H-pyrrolo[2,3-b]pyridine-3-sulfonamide], the Kb is 0.00316 to 0.0316 µM. Still for that read-out and setting: then `Cc1nc(F)c(NS(=O)(=O)c2c[nH]c3nc(C(F)F)ccc23)cc1F` [Example I-57, 6-(difluoromethyl)-N-(2,5-difluoro-6-methylpyridin-3-yl)-1H-pyrrolo[2,3-b]pyridine-3-sulfonamide], with 0.00316 to 0.0316 µM; and `COc1nc(OCCOC(F)F)c(F)cc1NS(=O)(=O)c1c[nH]c2nc(C(F)F)ccc12` [Example I-58, N-[6-[2-(difluoromethoxy)ethoxy]-5-fluoro-2-methoxypyridin-3-yl]-6-(difluoromethyl)-1H-pyrrolo[2,3-b]pyridine-3-sulfonamide], with no more than 0.00316 µM. For the compound `COc1nc(OC(F)F)c(F)cc1NS(=O)(=O)c1c[nH]c2cc(C)ccc12` [Example I-60, N-[6-(difluoromethoxy)-5-fluoro-2-methoxypyridin-3-yl]-6-methyl-1H-indole-3-sulfonamide], the Kb is no more than 0.00316 µM. Turning to `COc1ccc(NS(=O)(=O)c2c[nH]c3cc(Cl)ccc23)c(OC)n1` [Example I-61, 6-chloro-N-(2,6-dimethoxypyridin-3-yl)-1H-indole-3-sulfonamide], the Kb is 0.0316 to 0.316 µM. The same measure, in the same setting: then `COc1nc(OCC(F)F)c(F)cc1NS(=O)(=O)c1c[nH]c2cc(C(F)F)ccc12` [Example I-62, N-[6-(2,2-difluoroethoxy)-5-fluoro-2-methoxypyridin-3-yl]-6-(difluoromethyl)-1H-indole-3-sulfonamide], with no more than 0.00316 µM; and `COc1ccc2c(S(=O)(=O)Nc3cc(F)c(OC(F)F)nc3OC)c[nH]c2c1` [Example I-63, N-[6-(difluoromethoxy)-5-fluoro-2-methoxypyridin-3-yl]-6-methoxy-1H-indole-3-sulfonamide], with no more than 0.00316 µM. Turning to `COc1ccc2c(S(=O)(=O)Nc3cc(F)c(OCC(F)F)nc3OC)c[nH]c2c1` [Example I-64, N-[6-(2,2-difluoroethoxy)-5-fluoro-2-methoxypyridin-3-yl]-6-methoxy-1H-indole-3-sulfonamide], the Kb was no more than 0.00316 µM. Take `COc1nc(OCC(F)F)c(F)cc1NS(=O)(=O)c1c[nH]c2cc(C#N)ccc12` [Example I-65, 6-cyano-N-[6-(2,2-difluoroethoxy)-5-fluoro-2-methoxypyridin-3-yl]-1H-indole-3-sulfonamide]: the Kb was 0.00316 to 0.0316 µM. Still for that read-out and setting: the value for `COc1nc(OC(F)F)c(F)cc1NS(=O)(=O)c1c[nH]c2cc(C#N)ccc12` [Example I-66, 6-cyano-N-[6-(difluoromethoxy)-5-fluoro-2-methoxypyridin-3-yl]-1H-indole-3-sulfonamide] was no more than 0.00316 µM. Consider `O=S(=O)(Nc1cc(F)c(OCC(F)F)nc1F)c1c[nH]c2cc(Cl)ccc12` [Example I-67, 6-chloro-N-[6-(2,2-difluoroethoxy)-2,5-difluoropyridin-3-yl]-1H-indole-3-sulfonamide], for which the Kb is no more than 0.00316 µM. Turning to `COc1nc(OC(F)F)c(F)cc1NS(=O)(=O)c1c[nH]c2c1ccc1cccnc12` [Example I-68, N-[6-(difluoromethoxy)-5-fluoro-2-methoxypyridin-3-yl]-1H-pyrrolo[3,2-h]quinoline-3-sulfonamide], the Kb was no more than 0.00316 µM. Consider `COc1nc(OCC(F)F)c(F)cc1NS(=O)(=O)c1c[nH]c2c1ccc1cccnc12` [Example I-69, N-[6-(2,2-difluoroethoxy)-5-fluoro-2-methoxypyridin-3-yl]-1H-pyrrolo[3,2-h]quinoline-3-sulfonamide], for which the Kb is no more than 0.00316 µM.

As to `COc1nc(OCC(F)F)c(F)cc1NS(=O)(=O)c1c[nH]c2nc(Cl)c(Br)cc12` [Example I-71, 5-bromo-6-chloro-N-[6-(2,2-difluoroethoxy)-5-fluoro-2-methoxypyridin-3-yl]-1H-pyrrolo[2,3-b]pyridine-3-sulfonamide], the Kb was no more than 0.00316 µM. On the same count and under the same terms, then `COc1nc(Cl)c(F)cc1NS(=O)(=O)c1c[nH]c2nc(OCc3ccccc3)ccc12` [Example I-72, N-(6-chloro-5-fluoro-2-methoxypyridin-3-yl)-6-phenylmethoxy-1H-pyrrolo[2,3-b]pyridine-3-sulfonamide], with 0.0316 to 0.316 µM.

For a further assay, the target named is T1, GPR17. As to the kind of experiment: Calcium mobilization functional assay (Ca2+ assay) in CHO hGPR17 cells. The assay is classed as cell-based. More on the design: host or cells: Flp-In T-REx CHO cells, expression induced with doxycycline. As to conditions: inhibition of 50 nM MDL29,951 (GPR17 agonist), activity range, read-out: Ca^2+ assay pIC50 (converted). Here is the method: as §1
GPR17 is a G-protein coupled receptor. GPR17 activation triggers Gq-type G-protein signaling resulting in endoplasmic reticulum calcium (Ca^2+) stores release in cytosol which can be measured using Calcium 5 dye, a fluorescent indicator dye of cytosolic Ca^2+ levels. The compounds of the present invention were assessed either in the Ca^2+ assay or in the GPR17 cAMP assay, described further below.
CHO hGPR17 were defrosted and seeded at a density of 20,000 cells per well into black 384-well plates with clear bottom. Cells were incubated overnight at 37° C. in a humidified atmosphere of 5% CO2. Sixteen to twenty hours after seeding, CHO hGPR17 were loaded for 60 min with Calcium 5 dye, a cytosolic Ca^2+ indicator fluorescent dye, according to manufacturer's instructions. Fluorescent signal relative to cytosolic Ca^2+ concentration was recorded over time at room temperature in FLIPR Tetra reader. Cells were first incubated for 30 minutes at room temperature in HBSS Hepes buffer pH 7.4 containing increasing concentrations of test compounds (typically 10^−11 M to 10^−6M). Then, 50 nM MDL29,951, a GPR17 agonist, was added to the cells. Inhibitory effects of varying concentrations test compounds were measured and resulting pIC50S were determined. All incubations were performed in duplicate and results were compared to a concentration response curve of GPR17 agonist and antagonist reference compounds. Analysis and curve fitting were performed in ActivityBase XE using XLfit 4-parameter logistic equation y=A+((B−A)/(1+((C/x)^D))) where A, B, C and D stand for minimum y, maximum y, IC50 and slope, respectively.
The activities of the Example compounds tested are depicted in the table 6 in Section B-IIB below. The activity ranges A, B and C refer to pIC50 values in the Ca^2+ assay as follows: “A”: pIC50 6.5≤x<7.5, “B”: pIC50 7.5≤x<8.5, “C”: 8.5≤pIC50
(In general: Calcium assays in cells follow changes in intracellular calcium, usually with a dye or a luminescent sensor.)
`O=S(=O)(Nc1cc(F)cnc1F)c1c[nH]c2cc(Cl)ccc12` [Example I-1, 6-chloro-N-(2,5-difluoropyridin-3-yl)-1H-indole-3-sulfonamide]: the IC50 is 0.0316 to 0.316 µM. Same read-out and setting: the value for `COc1cc(NS(=O)(=O)c2c[nH]c3cc(Cl)ccc23)c(F)nc1Cl` [Example I-4, 6-chloro-N-(6-chloro-2-fluoro-5-methoxypyridin-3-yl)-1H-indole-3-sulfonamide] was 0.0316 to 0.316 µM. Still for that read-out and setting: the value for `COc1ccc(NS(=O)(=O)c2c[nH]c3cc(Cl)ccc23)c(Cl)n1` [Example I-8, 6-chloro-N-(2-chloro-6-methoxypyridin-3-yl)-1H-indole-3-sulfonamide] was 0.0316 to 0.316 µM; that for `COc1ncc(Cl)cc1NS(=O)(=O)c1c[nH]c2cc(Cl)ccc12` [Example I-17, 6-chloro-N-(5-chloro-2-methoxypyridin-3-yl)-1H-indole-3-sulfonamide] was 0.0316 to 0.316 µM; that for `N#Cc1ccc(NS(=O)(=O)c2c[nH]c3cc(Cl)ccc23)cn1` [Example I-19, 6-chloro-N-(6-cyanopyridin-3-yl)-1H-indole-3-sulfonamide] was 0.0316 to 0.316 µM.

With `O=S(=O)(Nc1ccc(Br)nc1)c1c[nH]c2cc(Cl)ccc12` [Example I-20, N-(6-bromopyridin-3-yl)-6-chloro-1H-indole-3-sulfonamide], the IC50 is 0.0316 to 0.316 µM. Still for that read-out and setting: the value for `O=S(=O)(Nc1cnc(Cl)c(F)c1)c1c[nH]c2cc(Cl)ccc12` [Example I-23, 6-chloro-N-(6-chloro-5-fluoropyridin-3-yl)-1H-indole-3-sulfonamide] was 0.0316 to 0.316 µM. The same measure, in the same setting: the value for `O=S(=O)(Nc1ccc(Cl)nc1)c1c[nH]c2cc(Cl)ccc12` [Example I-24, 6-chloro-N-(6-chloropyridin-3-yl)-1H-indole-3-sulfonamide] was 0.0316 to 0.316 µM; that for `COc1ccc(NS(=O)(=O)c2c[nH]c3c2ccc2ccccc23)c(OC)n1` [Example I-70, N-(2,6-dimethoxypyridin-3-yl)-1H-benzo[g]indole-3-sulfonamide] was 0.0316 to 0.316 µM.

These data come from patent US11939319B2, “Pyridinyl and pyrazinyl-(asa)indolsulfonamides” (UCB Pharma GmbH, priority 2018, dated 2024).
